Laboratory results reported in US20170216252A1, “ANTI-BACTERIAL PYRUVATE KINASE MODULATOR COMPOUNDS, COMPOSITIONS, USES AND METHODS” (SIMON FRASER UNIVERSITY, priority 2014, published 2017).
pEC50, pIC50: −log10 of the molar value. In brackets after ≈: the same amount, converted by molar mass. Read-outs that look alike come from different tables or passages of the source.

Legend:
[1] = test system: S. aureus ATCC 29213; test: In vitro susceptibility, broth microdilution MIC; type: cell-based, Staphylococcus aureus; details: Staphylococcus aureus, read-out: MIC
Description: The antimicrobial activities of PK inhibitor candidates were determined using the 96-well microtiter standard 2-fold serial broth microdilution method as described by CLSI (formerly NCCLS) with the various gram-positive and gram-negative bacteria species mentioned above. Bacteria from a single colony were grown, overnight in either BHI Broth (VRE), mueller hinton broth (S. aureus 29213; MRSA USA400) or L-broth (E. coli, P. aeruginosa, S. typhimuriu, K. Pneumonia and A. baumannii). […] Culture plates were incubated for 18-24 h at 37° C., and optical density at 600 nm (OD600) was measured using a Benchmark Plus™ microplate spectrophotometer (Bio-Rad™). The absorbance control values for the series containing CAMHB and inhibitor were subtracted as background from the corresponding infected wells. The MIC was defined as the lowest concentration of test compound leading to complete inhibition of cell growth in relationship to compound-free control wells as determined by optical density. […] All assays were run in triplicate (Tables 1-6) or duplicate. Experiments were replicated at least twice to verify reproducibility using the above conditions.

[2] = molecular target: T1, MRSA PK (Staphylococcus aureus, UniProt Q6GG09); test: MRSA PK activity, continuous LDH-coupled assay; type: biochemical, S. aureus (MRSA strain Sanger 252); details: for inhibition at 10 µM: read-out: % inhibition at the highest concentration tested (IC50)
T1 construct: His tag (pET-28a(+) vector) (N); made in house; host or cells: E. coli BL-21 (DE3)
Source text: Genomic DNA of MRSA strain Sanger 252 extracted using DNeasy Tissue Kit™ (Qiagen™) was used as a template to generate the His-tagged MRSA PK. Human cDNA from MCF-7 breast cancer cell line (courtesy of Dr. J Wong, BC Cancer Research Center (Vancouver, Canada) was used as a template to generate the full-length human M2 PK enzyme. The following primer sets were used creating appropriate restriction sites (NdeI and XhoI sites underlined): For cloning of MRSA PK: M27F 5′-[…]-3′ and M27R 5′-[…]-3′, for cloning of human M2 PK isoform: hM2F 5′-[…]-3′ and hM2R 5′-[…]-3′. The resulting PCR fragments for each construct were cloned into the NdeI and XhoI unique sites of the bacterial expression vector pET-28a (+) (Novagen™). […] The sequence and the correct reading frame of all constructs were verified by sequencing. Human M1, R and L PK constructs in pET-28-a(+) vectors (courtesy of Dr. L. Cantley, Harvard Medical, School (Boston, USA)) were used to generate relevant recombinant His-tagged human PK isoforms.
MRSA and human constructs in pET-28a(+) were used to express relevant recombinant PK proteins in E. coli BL-21 (DE3). The proteins were expressed and purified using Ni-NTA agarose (Qiagen™) according to the manufacturer's protocol. Briefly, cells were grown to an absorbance of 0.4-0.5 at 600 nm in 2×YT medium, then induced with 0.1 mM IPTG for 3 h at 20° C. Cells were lysed by sonication on ice (3×10-s bursts with a 30-s recovery between bursts) in lysis buffer (0.2 mg/ml lysozyme, 50 mM Tris pH 7.5, 10 mM MgCl2, 200 mM NaCl, 100 mM KCl, 10% glycerol, 10 mM imidazole, 0.5% NP-40 and 1 mM DTT containing Complete™ protease inhibitor). Cell lysates were cleared by centrifugation (18,000×g in a Beckman™ JA-20 rotor) for 20 min at 4° C. and PK isoforms were purified by batch binding to Ni-NTA resin. The resins were then packed in columns (1×2 cm) and washed with 400 column volumes lysis buffer containing 30 mM imidazole. His-tagged PK isoforms were eluted with the same buffer containing 300 mM imidazole. The proteins were dialyzed overnight at 4° C. against 2000 volumes of ice-cold 30 mM Tris pH 7.5, 25 mM KCl, 5 mM MgCl2, 10% glycerol and 1 mM DTT to remove imidazole. All purification steps were done at 4° C.; enzymes were flash-frozen and stored at −70° C. […] Purity and physical integrity of proteins were assessed using SDS-polyacrylamide gel electrophoresis (SDS-PAGE) followed by coomassie blue staining. Protein concentration was estimated by Bradford assay (Bio-Rad Protein Assay™) using bovine serum albumin as a standard.
Candidate MRSA PK inhibitors were assayed for their ability to inhibit enzymatic activities of MRSA and human PKs. PK activity was determined using a continuous assay coupled to lactate dehydrogenase (LDH) in which the change in absorbance at 340 nm owing to oxidation of NADH was measured using a Benchmark Plus™ microplate spectrophotometer (Bio-Rad Laboratories, Hercules, Calif.). […] Reactions were initiated by the addition of 15 nM of one of the PK enzymes. PK activity proportional to the rate of change at 340 nm was expressed as specific activity (μmol/min/mg), which is defined as the amount of PK that catalyzes the formation of one micromole of either product per minute. Inhibitors were dissolved in DMSO with the final concentration of the solvent never exceeding 1% of the assay volume. IC50 values were calculated by curve fitting on a four-parameter dose-response model with variable slope using Graphpad Prism 5.0™ (GraphPad™ Software Inc., La Jolla, Calif.). […] Reactions were performed at 30° C. for up to 5 min. All values determined represent at least two measurements, in triplicate (Tables 1-6) or duplicate unless mentioned otherwise.

[3] = ATCC29213, Tables 1-6 and text, minimum concentration to give >98% inhibition of growth
[4] = Tables 1-6, 2 mM ADP, 10 mM PEP, 15 nM PK, read-out: IC50
[5] = ATCC29213, Table 8, tested at least in duplicate, differing values all given

T1 sequence (Q6GG09 whole entry): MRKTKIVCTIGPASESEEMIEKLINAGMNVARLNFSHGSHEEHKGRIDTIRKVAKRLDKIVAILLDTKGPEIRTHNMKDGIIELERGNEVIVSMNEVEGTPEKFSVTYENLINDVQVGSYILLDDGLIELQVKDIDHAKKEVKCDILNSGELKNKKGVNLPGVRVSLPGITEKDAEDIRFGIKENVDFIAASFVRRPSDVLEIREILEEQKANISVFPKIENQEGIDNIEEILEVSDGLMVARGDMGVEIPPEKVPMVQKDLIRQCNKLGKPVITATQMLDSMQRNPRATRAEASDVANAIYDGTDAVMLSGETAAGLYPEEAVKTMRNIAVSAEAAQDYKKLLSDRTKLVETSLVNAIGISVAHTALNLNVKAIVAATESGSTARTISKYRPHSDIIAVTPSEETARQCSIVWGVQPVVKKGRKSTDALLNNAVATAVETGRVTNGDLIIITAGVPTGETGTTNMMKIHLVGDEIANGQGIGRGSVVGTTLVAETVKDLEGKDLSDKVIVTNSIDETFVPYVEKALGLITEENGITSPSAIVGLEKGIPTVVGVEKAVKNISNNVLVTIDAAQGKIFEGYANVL

| Structure (SMILES) | MIC [1, 3] | MIC [1, 5] | pIC50 [2] | other results |
| --- | --- | --- | --- | --- |
| Brc1ccc(-c2cccc(-c3cc4ccccc4[nH]3)c2)cc1 [Compound 59, 2-(4′-Bromo-[1,1′-biphenyl]-3-yl)-1H-indole] | > 64 mg/L |  |  | inhibition at 10 µM [2]: 54% |
| O=C(Nc1nc2cc(Br)ccc2s1)c1cc2ccccc2[nH]1 [Compound 53, N-(5-Bromobenzo[d]thiazol-2-yl)-1H-indole-2-carboxamide] | > 64 mg/L |  |  | pIC50 [2, 4]: 7.29 |
| Brc1ccc(-c2cncc(-c3cc4ccccc4[nH]3)n2)cc1 [Compound 60, 2-(6-(4-Bromophenyl)pyrazin-2-yl)-1H-indole] | > 64 mg/L |  |  | inhibition at 10 µM [2]: 79% |
| O=C(O)c1c(/C=C/c2ccc(Cl)nc2)[nH]c2cc(Br)ccc12 [Compound 152, (E)-6-Bromo-2-(2-(6-chloropyridin-3-yl)vinyl)-1H-indole-3-carboxylic acid] |  | 64 mg/L (≈ 169 µM) | < 6.00 |  |
| Brc1ccc2[nH]c(-c3ccc(-c4cc5cc(Br)ccc5[nH]4)s3)cc2c1 [Compound 43, 2,5-bis(5-Bromo-1H-indol-2-yl)thiophene] | > 64 mg/L |  |  | inhibition at 10 µM [2]: 50% |
| COc1ccc(/C=C/c2cc3ccc(Br)cc3[nH]2)nc1 [Compound 107, (E)-6-Bromo-2-(2-(5-methoxypyridin-2-yl)vinyl)-1H-indole] |  | > 64 mg/L | 7.00 to 7.30 |  |
| COC(=O)c1c(C(=O)Nc2ccc(Br)cc2)[nH]c2cc(Br)ccc12 [Compound 131, Methyl 6-bromo-2-((4-bromophenyl)carbamoyl)-1H-indole-3-carboxylate] |  | > 64 mg/L |  | pEC50 [2]: 7.82 |
| Brc1ccc(-c2cc3ccc(Br)cc3[nH]2)cc1 [Compound 55, 6-bromo-2-(4-bromophenyl)-1H-indole] | > 64 mg/L |  | 7.24 |  |
| O=C1c2ccc(Br)cc2C(=O)N1c1nc2ccc(Br)cc2s1 [Compound 65, 5-bromo-2-(6-bromobenzo[d]thiazol-2-yl)isoindoline-1,3-dione] | > 64 mg/L |  |  | inhibition at 10 µM [2]: 76% |
| O=C(O)c1cc(Br)cc2[nH]c(CCc3ccc(Cl)cc3)cc12 [Compound 159, 6-bromo-2-(4-chlorophenethyl)-1H-indole-4-carboxylic acid] |  | 64 mg/L (≈ 169 µM) | 6.00 to 7.00 |  |
| Brc1ccc2[nH]c(-c3cc4cc(Br)c(Br)cc4[nH]3)cc2c1 [Compound 10m, 5,5′,6-Tribromo-1H,1′H-2,2′-biindole] | 1 mg/L (≈ 2.13 µM) |  |  | pIC50 [2, 4]: 8.80 |
| COC(=O)c1c(C(=O)Nc2ccc(OC)cc2)[nH]c2cc(Br)ccc12 [Compound 133, Methyl 6-bromo-2-((4-methoxyphenyl)carbamoyl)-1H-indole-3-carboxylate] |  | > 64 mg/L | > 7.30 |  |
| O=C(O)c1c(/C=C/c2ccc(Br)cn2)[nH]c2cc(Br)ccc12 [Compound 153, (E)-6-Bromo-2-(2-(5-bromopyridin-2-yl)vinyl)-1H-indole-3-carboxylic acid] |  | 32 mg/L (≈ 75.8 µM) | 6.00 to 7.00 |  |
| O=C(c1cc2ccc(Br)cc2[nH]1)c1cc2ccccc2cc1O [Compound 42, (6-Bromo-1H-indol-2-yl)(3-hydroxynaphthalen-2-yl)methanone] | > 64 mg/L |  |  | inhibition at 10 µM [2]: 72% |
| Brc1ccc2cc(/C=C/c3cc4ccc(Br)cc4[nH]3)[nH]c2c1 [Compound 27b, (E)-1,2-bis(6-bromo-1H-indol-2-yl)ethane] | > 64 mg/L |  |  | pIC50 [2, 4]: 8.41 |
| O=C(Nc1cccc(Br)c1O)c1cc2ccc(Br)cc2[nH]1 [Compound 64, 6-Bromo-N-(3-bromo-2-hydroxyphenyl)-1H-indole-2-carboxamide] | > 64 mg/L |  |  | pIC50 [2, 4]: 6.94 |
| O=C(O)c1cc(Br)cc2[nH]c(/C=C/c3ccc(Cl)cc3)cc12 [Compound 158, (E)-6-Bromo-2-(4-chlorostyryl)-1H-indole-4-carboxylic acid] |  | 32 mg/L (≈ 85 µM) | < 6.00 |  |
| COC(=O)c1c(C(=O)Nc2ccc(Cl)cn2)[nH]c2cc(Br)ccc12 [Compound 137, Methyl 6-bromo-2-((5-chloropyridin-2-yl)carbamoyl)-1H-indole-3-carboxylate] |  | > 64 mg/L |  | pEC50 [2]: 7.88 |
| COc1ccc2[nH]c(-c3[nH]c4cc(Br)ccc4c3C(=O)C(F)(F)F)cc2c1 [Compound 179, 1-(6-bromo-5′-methoxy-1H,1′H-[2,2′-biindol]-3-yl)-2,2,2-trifluoroethan-1-one] |  | 64 mg/L (≈ 146 µM) | > 7.30 |  |
| Brc1ccc2cc(CSCc3ccccc3)[nH]c2c1 [Compound 149, 2-((Benzylthio)methyl)-6-bromo-1H-indole] |  | > 64 mg/L | < 6.00 |  |
| Brc1ccc(-c2c[nH]c3cc(Br)ccc23)cc1 [Compound 57, 6-bromo-3-(4-bromophenyl)-1H-indole] | 2 mg/L (≈ 5.7 µM) |  |  | pIC50 [2, 4]: 6.99 |
| Brc1ccc2[nH]c(/C=C/c3cc4ccc(Br)cc4[nH]3)cc2c1 [Compound 27c, (E)-6-bromo-2-(2-(5-bromo-1H-indol-2-yl)vinyl)-1H-indole] | > 64 mg/L |  |  | pIC50 [2, 4]: 8.39 |
| O=C(Nc1ccc(Br)cc1)c1cc2ccc(Br)cc2s1 [Compound 71, 6-bromo-N-(4-bromophenyl)benzo[b]thiophene-2-carboxamide] | > 64 mg/L |  |  | inhibition at 10 µM [2]: 55% |
| O=C(Nc1nc2ccccc2s1)c1cc(Br)ccc1O [Compound 56] | > 64 mg/L |  |  | inhibition at 10 µM [2]: 76% |
| O=C(c1c(CCc2ccc(Cl)nc2)[nH]c2cc(Br)ccc12)C(F)(F)F [Compound 173, 1-(6-Bromo-2-(2-(6-chloropyridin-3-yl)ethyl)-1H-indol-3-yl)-2,2,2-trifluoroethanone] |  | > 64 mg/L | < 6.00 |  |
